≈ marks a conversion by molar mass, not a printed value. Where two headings read alike, the source gives them in different places.
Assays:
Tetrahymena pyriformis W = assay: Antiprotozoal activity, growth inhibition by serial dilution method; type: cell-based
Protocol: Antiprotozoal activity of compound (I) was assayed with Tetrahymena pyriformis W as the test organism and a medium composed of 20 g tryptose-peptone (Difco Co.), 1 g yeast extract, 2 g glucose, 1000 ml distilled water, 10 ml 1 M phosphate buffer (pH 7.0) as the assay medium. The microorganism was incubated at 28° C. for 44 to 48 hours and the growth inhibitory activity of compound (I) was assayed by the serial dilution method.

[1] = system: melanoma B-16 tumor cells; assay: Antitumor activity, life span prolongation in mice transplanted intraperitoneally with melanoma B-16; type: in vivo; settings: intraperitoneal, once daily for 9 consecutive days
Protocol: Therapeutic tests were carried out in mice according to NCI-protocol 1,300, Cancer Chemother, Reports, Part 3, 1972, Vol. 3, No. 2, in which melanoma B-16 tumor cells had been intraperitoneally transplanted, compound (I) being administered intraperitoneally once daily for 9 consecutive days.

[2] = Tetrahymena pyriformis W, 28° C., 44 to 48 hours, pH 7.0 medium, serial dilution, read-out: Antiprotozoal activity MIC

| Structure (SMILES) | MIC (Tetrahymena pyriformis W; [2]) [µg/mL] | Antitumor activities B-16 (T/C %) ([1]; 25 μg/kg) [%] | Antitumor activities B-16 (T/C %) ([1]; 50 μg/kg) [%] | Antitumor activities B-16 (T/C %) ([1]; 100 μg/kg) [%] | Antitumor activities B-16 (T/C %) ([1]; 200 μg/kg) [%] | MIC (Tetrahymena pyriformis W; Tetrahymena pyriformis, pH 7, read-out: Antiprotozoal activity MIC) [µg/mL] | Antitumor activities B-16 (T/C %) ([1]; 12.5 μg/kg) [%] |
| --- | --- | --- | --- | --- | --- | --- | --- |
| COc1cc2cc(c1Cl)N(C)C(=O)CC(OC(=O)[C@H](Cc1ccccc1)N(C)C(C)=O)C1(C)OC1C(C)C1CC(O)(NC(=O)O1)C(OC)C=CC=C(C)C2 (stereo partly shown) | 1 (≈ 1.3 µM) | 211 | 208 | 205 | 95 |  |  |
| COc1cc2cc(c1Cl)N(C)C(=O)CC(OC(=O)[C@@H](CC(C)C)N(C)C(C)=O)C1(C)OC1C(C)C1CC(O)(NC(=O)O1)C(OC)C=CC=C(C)C2 (stereo partly drawn) [maytansinol 3-(N-acetyl-N-methyl)-D-leucine ester] |  |  |  |  |  | 28 (≈ 38.1 µM) |  |
| COc1cc2cc(c1Cl)N(C)C(=O)CC(OC(=O)[C@H](CC(C)C)N(C)C(C)=O)C1(C)OC1C(C)C1CC(O)(NC(=O)O1)C(OC)C=CC=C(C)C2 (stereo partly drawn) [maytansinol 3-(N-acetyl-N-methyl)-L-leucine ester] | 2 (≈ 2.72 µM) | 171 | 209 | 202 | 65 |  |  |
| COc1cc2cc(c1Cl)N(C)C(=O)CC(OC(=O)[C@H](C)N(C)C(=O)c1ccccc1)C1(C)OC1C(C)C1CC(O)(NC(=O)O1)C(OC)C=CC=C(C)C2 (stereo partly drawn) [maytansinol 3-(N-benzoyl-N-methyl)-L-alanine ester] | 2 to 4 (≈ 2.65 to 5.3 µM) |  |  |  |  |  |  |
| COc1cc2cc(c1Cl)N(C)C(=O)CC(OC(=O)[C@H](Cc1ccccc1)NC(=O)OC(C)(C)C)C1(C)OC1C(C)C1CC(O)(NC(=O)O1)C(OC)C=CC=C(C)C2 (stereo partly drawn) [maytansinol 3-(N-t-butyloxycarbonyl)-L-phenylalanine ester] | 4 (≈ 4.92 µM) |  |  |  |  |  |  |
| COc1cc2cc(c1Cl)N(C)C(=O)CC(OC(=O)[C@@H](C)N(C)C(=O)OC(C)(C)C)C1(C)OC1C(C)C1CC(O)(NC(=O)O1)C(OC)C=CC=C(C)C2 (stereo partly drawn) [maytansinol 3-(N-tert-butoxycarbonyl-N-methyl)-D-alanine ester] | 8 (≈ 10.7 µM) |  |  |  |  |  |  |
| COc1cc2cc(c1Cl)N(C)C(=O)CC(OC(=O)[C@H](C)N(C)C(=O)OC(C)(C)C)C1(C)OC1C(C)C1CC(O)(NC(=O)O1)C(OC)C=CC=C(C)C2 (stereo partly drawn) [maytansinol 3-(N-tert-butoxycarbonyl-N-methyl)-L-alanine ester] | 0.4 to 0.8 (≈ 0.533 to 1.07 µM) | 178 | 198 | 193 |  |  | 163 |
